Experimental findings from the NIST ThermoML archive (doi:10.1016/j.fluid.2005.11.017) are described below.

Where “and” joins values, the source holds several entries; their conditions need not be identical. Equal values may be shown once. Numbers after ± are expanded uncertainties.

The conditions of the data set: 313.15 K; Liquid.
For the compound `CC(C)CO` [2-methyl-1-propanol], the “vapor or sublimation pressure” value was 4.015 ± 0.056 kPa [middle of 4 runs].
With `c1ccccc1` [benzene] the figure was 24.38 ± 0.18 kPa and 24.36 ± 0.18 kPa; with `CC(C)OC(C)C` [diisopropyl ether], 37.11 ± 0.27 kPa and 37.09 ± 0.27 kPa and 37.14 ± 0.27 kPa.

The vapor or sublimation pressure is the pressure of vapour in equilibrium with the condensed phase.
